Measured values published in patent publication US5726159A, “Antithrombotic agents” (Eli Lilly and Company, priority 1995, dated 1998).
Counter-ions that a name gives are not always drawn.

Assays:
Format in all cases: biochemical
Conditions in all cases: concentration required to double the clotting time
Human plasma [1] = test: Human plasma anticoagulation, thrombin time (TT)
Experimental: (§1) Dog plasma and rat plasma is obtained from conscious mixed-breed hounds (either sex, Hazelton-LRE, Kalamazoo, Mich., U.S.A.) or from anesthetized male Sprague-Dawley rats (Harlan Sprague-Dawley, Inc., Indianapolis, Ind., U.S.A.) by venipuncture into 3.8 percent citrate. Fibrinogen is prepared from in-date ACD human blood as the fraction I-2 according to previous procedures and specifications. […] Human fibrinogen is also purchased as 98 percent pure/plasmin free from American Diagnostica, Greenwich, Conn. Coagulation reagents ACTIN, Thromboplastin, and Human plasma are from Baxter Healthcare Corp., Dade Division, Miami, Fla. Bovine thrombin from Parke-Davis ([…], Mich.) is used for coagulation assays in plasma.
(§2) Coagulation assay procedures are as previously described. […] A CoAScreener coagulation instrument (American LABor, Inc.) is used for all coagulation assay measurements. The prothrombin time (PT) is measured by adding 0.05 mL saline and 0.05 mL Thromboplastin-C reagent to 0.05 mL test plasma. The activated partial thromboplastin time (APTT) is measured by incubation of 0.05 mL test plasma with 0.05 mL Actin reagent for 120 seconds followed by 0.05 mL CaCl2 (0.02M). The thrombin time (TT) is measured by adding 0.05 mL saline and 0.05 mL thrombin (10 NIH units/mL) to 0.05 mL test plasma. The compounds of Formula I are added to human or animal plasma over a wide range of concentrations to determine prolongation effects on the APTT, PT, and TT assays. Linear extrapolations are performed to estimate the concentrations required to double the clotting time for each assay.

Human plasma [2] = test: Human plasma anticoagulation, prothrombin time (PT)
Experimental: as §1, §2

Human plasma [3] = test: Human plasma anticoagulation, activated partial thromboplastin time (APTT)
Experimental: as §1, §2

| Compound | 2x Clotting time TT (Human plasma [1]) | 2x Clotting time PT (Human plasma [2]) | 2x Clotting time APTT (Human plasma [3]) |
| --- | --- | --- | --- |
| Nc1ccc(CNC(=O)[C@@H]2CCCN2C(=O)[C@@H](CC2CCCCC2)NCC(=O)O)cc1F [Example 77, HO2 CCH2 -D-Cha-Pro-4-NHCH2 -2-F-aniline.HCl] | 53 ng/mL | 890 ng/mL | 1,600 ng/mL |
| Nc1ccc(CNC(=O)[C@@H]2CCCN2C(=O)[C@@H](CC2CCCCC2)NCC(=O)O)cn1 [Example 74, HO2 CCH2 -D-Cha-Pro-5-NHCH2 -2-aminopyridine.HCl] | 20 ng/mL | 350 ng/mL | 420 ng/mL |
| O=C(O)CN[C@H](CC1CCCCC1)C(=O)N1CCC[C@H]1C(=O)NCC1CCNCC1 [Example 53, HO2 CCH2 -D-Cha-Pro-4-NHCH2 -piperidine.HCl] | 1,400 ng/mL | 34,500 ng/mL | 33,800 ng/mL |
| N=C(N)c1ccc(CNC(=O)[C@@H]2CCCN2C(=O)[C@@H](CC2CCCCC2)NCC(=O)O)nn1 [Example 69, HO2 CCH2 -D-Cha-Pro-3-NHCH2 -6-amidinopyridazine.HCl] | 5. ng/mL | 220 ng/mL | 110 ng/mL |
| N=C(N)c1ccc(CNC(=O)[C@@H]2C[C@@H]3CCCC[C@@H]3N2C(=O)[C@H]2CCCCN2)cc1 [Example 20, D-hPro-Ohi-p-NHCH2 C6 H4 C(NH)NH2.3HCl] | 62 ng/mL | 600 ng/mL | 550 ng/mL |
| D-hPro-Pro-p-NHCH2 C6 H4 C(NH)NH2.HCl [Example 17] | 26 ng/mL | 400 ng/mL | 370 ng/mL |
| N=C(N)c1ccc(CCNC(=O)[C@@H]2CCCN2C(=O)[C@@H]2NCC[C@@H]3CCCC[C@@H]32)cc1 [Example 28, 1-Piq-Pro-p-NHCH2 CH2 -C6 H4 C(=NH)NH2.2HCl] | 520 ng/mL | 8,300 ng/mL | 8,100 ng/mL |
| CCS(=O)(=O)N[C@H](Cc1ccccc1)C(=O)N1CCC[C@H]1C(=O)NCCCc1ccc(C(=N)N)cc1 [Example 30, EtSO2 -D-Phe-Pro-p-NHCH2 CH2 CH2 -C6 H4 C(=NH)NH2.HCl] | 1,000 ng/mL | 14,400 ng/mL | 14,000 ng/mL |
| N=C(N)C1CCC(CNC(=O)[C@@H]2CCCN2C(=O)[C@@H](CC2CCCCC2)NCC(=O)O)NC1 (stereo partly drawn) [Example 67, HO2 CCH2 -D-Cha-Pro-2-NHCH2 -5-amidinopiperidine.HCl] | 34. ng/mL | 1,300 ng/mL | 1,800 ng/mL |
| N=C(N)c1cccc(CCNC(=O)[C@@H]2CCCN2C(=O)[C@@H]2NCC[C@@H]3CCCC[C@@H]32)c1 [Example 29, 1-Piq-Pro-m-NHCH2 CH2 -C6 H4 C(=NH)NH2.2HCl] | 750 ng/mL | 15,800 ng/mL | 9,800 ng/mL |
| CCS(=O)(=O)N[C@H](Cc1ccccc1)C(=O)N1CCC[C@H]1C(=O)NCCCc1cccc(C(=N)N)c1 [Example 31, EtSO2 -D-Phe-Pro-m-NHCH2 CH2 CH2 -C6 H4 C(=NH)NH2.HCl] | 10,800 ng/mL | 30,000 ng/mL | 34,500 ng/mL |
| N=C(N)c1ccc(CNC(=O)CN(CCc2ccccc2)C(=O)CNCC(=O)O)cc1 [Example 89, HOOCCH2 -Gly-N-C6 H5 CH2 CH2 Gly-p-NHCH2 C6 H4 C(NH)NH2.HCl] | 570 ng/mL | 37,000 ng/mL | 51,000 ng/mL |
| CCC(CC)C(=O)N[C@@H](CCS(C)(=O)=O)C(=O)N1CCC[C@H]1C(=O)NCc1ccc(C(=N)N)cc1 [Example 91, (C2 H5)2 CHCO-Met(O2)-Pro-p-NHCH2 C6 H4 C(NH)NH2.HCl] | 63 ng/mL | 3,500 ng/mL | 3,000 ng/mL |
| NCc1ccc(CNC(=O)[C@@H]2CCCN2C(=O)[C@@H](CC2CCCCC2)NCC(=O)O)cc1 [Example 78, HO2 CCH2 -D-Cha-Pro-4-NHCH2 C6 H4 CH2 NH2.HCl] | 46 ng/mL | 760 ng/mL | 430 ng/mL |
| N=C(N)c1cccc(CCCNC(=O)[C@@H]2CCCN2C(=O)[C@@H]2NCC[C@@H]3CCCC[C@@H]32)c1 [Example 33, 1-Piq-Pro-m-NHCH2 CH2 CH2 -C6 H4 C(=NH)NH2.HCl] | 18,900 ng/mL | 70,900 ng/mL | 59,300 ng/mL |
| CCS(=O)(=O)N[C@H](CC1CCCCC1)C(=O)N1CCC[C@H]1C(=O)NCc1ccc(N)nc1 [Example 84, EtSO2 -D-Cha-Pro-5-NHCH2 -2-aminopyridine.HCl] | 110 ng/mL | 1,900 ng/mL | 1,500 ng/mL |
| O=C(O)CN[C@H](CC1CCCCC1)C(=O)N1CCC[C@H]1C(=O)NCC1=CCNCC1 [Example 58, HO2 CCH2 -D-Cha-Pro-4-NHCH2 -3,4-dehydro-piperidine.HCl] | 710 ng/mL | 11,400 ng/mL | 14,300 ng/mL |
| N=C(N)C1=CNC(CNC(=O)[C@@H]2CCCN2C(=O)[C@@H](CC2CCCCC2)NCC(=O)O)CC1 (stereo partly drawn) [Example 68, HO2 CCH2 -D-Cha-Pro-2-NHCH2 -5-amidino-5,6-dehydro-piperidine.HCl] | 4. ng/mL | 190 ng/mL | 49 ng/mL |
| N=C(N)N1CCC(CNC(=O)[C@@H]2CCCN2C(=O)[C@@H](CC2CCCCC2)NCC(=O)O)CC1 [Example 56, HO2 CCH2 -D-Cha-Pro-4-NHCH2 -1-amidinopiperidine.HCl] | 5 ng/mL | 200 ng/mL | 160 ng/mL |
| CCS(=O)(=O)N[C@H](CC1CCCCC1)C(=O)N1CCC[C@H]1C(=O)NCc1ccc(N)cc1F [Example 82, EtSO2 -D-Cha-Pro-4-NHCH2 -3-F-C6 H3 NH2.HCl] | 130 ng/mL | 3,000 ng/mL | 3,800 ng/mL |
| O=C(O)CN[C@H](CC1CCCCC1)C(=O)N1CCC[C@H]1C(=O)NCCCC1CCNCC1 [Example 55, HO2 CCH2 -D-Cha-Pro-4-NHCH2 CH2 CH2 -piperidine.HCl] | 55,800 ng/mL | > 91,000 ng/mL | > 91,000 ng/mL |
| N=C(N)c1cc(F)c(CNC(=O)[C@@H]2CCCN2C(=O)[C@@H](CC2CCCCC2)NCC(=O)O)c(F)c1 [Example 72, HO2 CCH2 -D-Cha-Pro-4-NHCH2 -3,5-F2 -benzamidine.HCl] | 1 ng/mL | 160 ng/mL | 160 ng/mL |
| N=C(N)N1CC=C(CNC(=O)[C@@H]2CCCN2C(=O)[C@@H](CC2CCCCC2)NCC(=O)O)CC1 [Example 70, HO2 CCH2 -D-Cha-Pro-4-NHCH2 -1-amidino-3,4-dehydro-piperidine.HCl] | 2 ng/mL | 180 ng/mL | 160 ng/mL |
| O=C(O)CN[C@H](CC1CCCCC1)C(=O)N1CCC[C@H]1C(=O)NCCC1CCNCC1 [Example 54, HO2 CCH2 -D-Cha-Pro-4-NHCH2 CH2 -piperidine.HCl] | 140 ng/mL | 2,200 ng/mL | 3,300 ng/mL |
| N=C(N)c1ccc(CNC(=O)[C@@H]2CCCN2C(=O)[C@@H](CC2CCCCC2)NCCCC(=O)O)cc1 [Example 85, HOOCCH2 CH2 CH2 -D-Cha-Pro-p-NHCH2 C6 H4 C(NH)NH2.HCl] | 4.9 ng/mL | 197 ng/mL | 100 ng/mL |
| CCS(=O)(=O)N[C@H](Cc1ccccc1)C(=O)N1CCC[C@H]1C(=O)NCc1cccc(NC(=N)N)c1 [Example 36, EtSO2 -D-Phe-Pro-m-NHCH2 C6 H4 NHC(NH)NH2.HCl] | 7,700 ng/mL | > 91,000 ng/mL | > 91,000 ng/mL |
